Experimental data: the supplement of paper PMC13380429

Experiments:
Details in all cases: 72 h
[1] = test system: Caco-2; assay: relative viability EC50 (midpoint between 100% and the lowest measured viability); higher = less toxic
[2] = test system: HepG2; assay: as above
[3] = test system: Vero E6; assay: as above
[4] = test system: U2OS; assay: as above
[5] = test system: Calu-3; assay: as above
[6] = test system: Caco-2; assay: drug sensitivity score (DSS) for viability; higher = more toxic; extreme values may be limits of the assay
[7] = test system: HepG2; assay: as above
[8] = test system: Vero E6; assay: as above
[9] = test system: U2OS; assay: as above
[10] = test system: Calu-3; assay: as above
[11] = test system: Caco-2; assay: cell viability relative to DMSO; higher = less toxic
[12] = test system: HepG2; assay: as above
[13] = test system: Vero E6; assay: as above
[14] = test system: U2OS; assay: as above
[15] = test system: Calu-3; assay: as above

Row | SMILES | relative viability EC50 [1] [nM] | relative viability EC50 [2] [nM] | relative viability EC50 [3] [nM] | relative viability EC50 [4] [nM] | relative viability EC50 [5] [nM] | drug sensitivity score [6] | drug sensitivity score [7] | drug sensitivity score [8] | drug sensitivity score [9] | drug sensitivity score [10] | cell viability ([11]; 1 nM) [%] | cell viability ([11]; 10 nM) [%] | cell viability ([11]; 100 nM) [%] | cell viability ([11]; 1000 nM) [%] | cell viability ([11]; 10000 nM) [%] | cell viability ([12]; 1 nM) [%] | cell viability ([12]; 10 nM) [%] | cell viability ([12]; 100 nM) [%] | cell viability ([12]; 1000 nM) [%] | cell viability ([12]; 10000 nM) [%] | cell viability ([13]; 1 nM) [%] | cell viability ([13]; 10 nM) [%] | cell viability ([13]; 100 nM) [%] | cell viability ([13]; 1000 nM) [%] | cell viability ([13]; 10000 nM) [%] | cell viability ([14]; 1 nM) [%] | cell viability ([14]; 10 nM) [%] | cell viability ([14]; 100 nM) [%] | cell viability ([14]; 1000 nM) [%] | cell viability ([14]; 10000 nM) [%] | cell viability ([15]; 1 nM) [%] | cell viability ([15]; 10 nM) [%] | cell viability ([15]; 100 nM) [%] | cell viability ([15]; 1000 nM) [%] | cell viability ([15]; 10000 nM) [%]
1 | CN1CC[C@H](c2c(O)cc(O)c3c(=O)cc(-c4ccccc4Cl)oc23)[C@H](O)C1 [alvocidib] | 242 | 110 | 290 | 280 | 138 | 14.7 | 22.1 | 17.8 | 18.1 | 14.5 | 104 | 99.3 | 93.3 | 25.5 | 30.2 | 100 | 106 | 59.3 | 9.5 | 7.2 | 102 | 102 | 95.2 | 5.5 | 3.4 | 98.7 | 101 | 95.4 | 3 | 3.4 | 89.9 | 98.4 | 80.4 | 36.8 | 37.4
2 | CC[N+](CC)(CCNC(=O)C(=O)NCC[N+](CC)(CC)Cc1ccccc1Cl)Cc1ccccc1Cl [ambenonium] | > 10000 | > 10000 | > 10000 | > 10000 | > 10000 | 0 | 0 | 0 | 0 | 0 | 94.7 | 96 | 93.6 | 93.9 | 92.5 | 98.6 | 105 | 96.6 | 100 | 105 | 96.4 | 95.5 | 97.9 | 93.1 | 95.3 | 97.7 | 96.3 | 100 | 94.9 | 100 | 103 | 99.8 | 103 | 97.6 | 141
